ChEMBL document CHEMBL1143272, “(S)-N-(5-Chlorothiophene-2-sulfonyl)-beta,beta-diethylalaninol a Notch-1-sparing gamma-secretase inhibitor” (Bioorg Med Chem Lett, 2009)
Values after ≈ are worked out from the molar mass of the structure shown.

How the values were obtained:
[1] = Inhibition of gamma-secretase-mediated amyloid beta 40/42 accumulation assessed as beta-CTF cleavage by cell-based sandwich ELISA
[2] = system: Mus musculus; assay: Reduction in amyloid beta 40 level in Tg2576 mouse brain at 20 mg/kg, sc; format: functional; design: scale not given: the % may be the effect or the level left; conditions: route subcutaneous
[3] = Solubility of compound at pH 7.4; format: physicochemical; conditions: buffer
[4] = system: Mus musculus; assay: Reduction in amyloid beta 40 level in Tg2576 mouse brain at 1 mg/kg, sc administered subchronically for 5 days; format: functional; design: scale not given: the % may be the effect or the level left; conditions: route subcutaneous
[5] = Inhibition of gamma-secretase by Notch-1 cleavage assay
[6] = target: Cytochrome P450 2C9 (Homo sapiens, UniProt P11712); assay: Inhibition of CYP2C9 at 50 uM; format: ADME
Cytochrome P450 2C9, sequence (P11712 whole entry): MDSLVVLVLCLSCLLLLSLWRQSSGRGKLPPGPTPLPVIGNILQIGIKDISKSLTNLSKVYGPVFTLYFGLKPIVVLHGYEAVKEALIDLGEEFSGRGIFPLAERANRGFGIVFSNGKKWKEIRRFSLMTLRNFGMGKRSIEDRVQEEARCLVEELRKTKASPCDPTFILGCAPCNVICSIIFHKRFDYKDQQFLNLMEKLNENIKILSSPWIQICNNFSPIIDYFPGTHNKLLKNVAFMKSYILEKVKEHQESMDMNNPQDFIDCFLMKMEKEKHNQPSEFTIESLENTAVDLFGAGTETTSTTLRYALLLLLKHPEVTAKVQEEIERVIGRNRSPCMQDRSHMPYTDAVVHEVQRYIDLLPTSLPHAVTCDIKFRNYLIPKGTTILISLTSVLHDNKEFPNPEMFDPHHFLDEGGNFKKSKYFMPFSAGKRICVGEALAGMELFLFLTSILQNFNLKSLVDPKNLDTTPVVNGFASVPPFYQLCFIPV

[7] = target: Cytochrome P450 2D6 (Homo sapiens, UniProt P10635); assay: Inhibition of CYP2D6 at 50 uM; format: ADME
Cytochrome P450 2D6, sequence (P10635 whole entry): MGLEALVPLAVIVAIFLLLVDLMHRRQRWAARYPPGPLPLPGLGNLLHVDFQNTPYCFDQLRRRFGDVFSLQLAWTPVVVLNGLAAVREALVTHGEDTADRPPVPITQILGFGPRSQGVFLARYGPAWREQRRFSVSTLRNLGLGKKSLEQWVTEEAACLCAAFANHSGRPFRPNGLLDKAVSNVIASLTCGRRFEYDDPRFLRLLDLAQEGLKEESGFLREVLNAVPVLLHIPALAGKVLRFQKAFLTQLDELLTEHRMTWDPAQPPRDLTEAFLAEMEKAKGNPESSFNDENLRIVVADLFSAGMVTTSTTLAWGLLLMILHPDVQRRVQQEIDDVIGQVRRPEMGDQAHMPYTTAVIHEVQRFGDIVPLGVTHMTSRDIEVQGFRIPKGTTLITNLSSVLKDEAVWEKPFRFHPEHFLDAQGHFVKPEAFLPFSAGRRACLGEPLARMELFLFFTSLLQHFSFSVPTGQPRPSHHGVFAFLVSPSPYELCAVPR

[8] = system: Mus musculus; assay: Reduction in amyloid beta 42 level in Tg2576 mouse brain at 1 mg/kg, sc administered subchronically for 5 days; format: functional; design: scale not given: the % may be the effect or the level left; conditions: route subcutaneous
[9] = target: Cytochrome P450 3A4 (Homo sapiens, UniProt P08684); assay: Inhibition of CYP3A4 at 50 uM; format: ADME
Cytochrome P450 3A4, sequence (P08684 whole entry): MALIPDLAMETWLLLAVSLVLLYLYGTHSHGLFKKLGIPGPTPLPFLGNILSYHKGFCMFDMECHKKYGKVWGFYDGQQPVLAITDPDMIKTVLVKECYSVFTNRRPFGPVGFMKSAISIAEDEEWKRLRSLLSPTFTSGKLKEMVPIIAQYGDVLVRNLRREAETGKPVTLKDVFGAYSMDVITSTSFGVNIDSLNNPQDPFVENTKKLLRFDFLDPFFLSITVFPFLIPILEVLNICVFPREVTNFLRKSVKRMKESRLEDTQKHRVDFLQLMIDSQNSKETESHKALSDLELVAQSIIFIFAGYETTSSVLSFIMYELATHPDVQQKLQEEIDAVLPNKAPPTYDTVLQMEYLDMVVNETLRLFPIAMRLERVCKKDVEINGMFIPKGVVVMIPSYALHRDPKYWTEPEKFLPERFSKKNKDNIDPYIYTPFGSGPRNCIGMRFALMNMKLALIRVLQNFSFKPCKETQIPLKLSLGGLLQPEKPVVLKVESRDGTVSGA

[10] = Selectivity ratio of EC50 for gamma-secretase assessed as Notch-1 cleavage to EC50 for gamma-secretase assessed as beta-CTF cleavage

| EC50 [1] [µM] | SMILES | also measured |
| --- | --- | --- |
| 0.111 | CCCC(CCC)[C@@H](CO)NS(=O)(=O)c1ccc(Cl)s1 | – |
| 0.212 | CCCCCC[C@@H](C)[C@@H](CO)NS(=O)(=O)c1ccc(Cl)s1 | – |
| 1.05 | CC[C@H](C)[C@@H](CO)NS(=O)(=O)c1cc(Cl)c(Cl)s1 | – |
| 0.253 | CCC[C@H](CC(C)C)[C@@H](CO)NS(=O)(=O)c1ccc(Cl)s1 | – |
| 0.49 | CC(C)[C@@](C)(CO)NS(=O)(=O)c1ccc(Cl)s1 | – |
| > 30 | O=S(=O)(N[C@H](CO)C1CCNCC1)c1ccc(Cl)s1 | – |
| 0.103 | CCC[C@H](C)[C@@H](CO)NS(=O)(=O)c1ccc(Cl)s1 | – |
| 2.2 | CC[C@H](C)[C@@H](CO)NS(=O)(=O)c1ccc(Br)cc1 | – |
| 7.6 | CC[C@@H](C)[C@H](CO)NS(=O)(=O)c1ccc(Cl)s1 | – |
| 0.82 | O=S(=O)(N[C@H](CO)C1CCCCC1)c1ccc(Cl)s1 | – |
| 7 | CC[C@H](C)[C@@H](CO)NS(=O)(=O)c1cccs1 | – |
| 0.043 | CCCCCC[C@@H](CC)[C@@H](CO)NS(=O)(=O)c1ccc(Cl)s1 | – |
| 0.46 | CC[C@H](C)[C@@H](CO)NS(=O)(=O)c1ccc(F)s1 | – |
| 4.7 | CC[C@H](C)[C@@H](CO)NS(=O)(=O)c1ccccc1 | – |
| 0.029 | CCC[C@H](CC)[C@@H](CO)NS(=O)(=O)c1ccc(Cl)s1 | – |
| > 30 | CC[C@H](C)[C@@H](CO)NS(=O)(=O)c1sc(Cl)cc1Br | – |
| 0.071 | CCCCCC[C@@H](C(C)C)[C@@H](CO)NS(=O)(=O)c1ccc(Cl)s1 | – |
| 0.072 | CCCCC[C@H](CC)[C@@H](CO)NS(=O)(=O)c1ccc(Cl)s1 | – |
| > 30 | O=S(=O)(N[C@H](CO)C(c1ccccc1)c1ccccc1)c1ccc(Cl)s1 | – |
| 4.05 | CCC[C@H](c1ccccc1)[C@@H](CO)NS(=O)(=O)c1ccc(Cl)s1 | – |

| EC50 [1] [µM] | SMILES | also measured |
| --- | --- | --- |
| 0.115 | CC(C)C[C@@H](C)[C@@H](CO)NS(=O)(=O)c1ccc(Cl)s1 | – |
| 0.028 | CC[C@H](CC(C)C)[C@@H](CO)NS(=O)(=O)c1ccc(Cl)s1 | – |
| 3.91 | C[C@@H](c1ccccc1)[C@@H](CO)NS(=O)(=O)c1ccc(Cl)s1 | – |
| > 30 | CC[C@H](C)[C@@H](CO)NS(=O)(=O)c1ccc(Cl)o1 | – |
| 0.429 | CCCCCC[C@H](CC)[C@@H](CO)NS(=O)(=O)c1ccc(Cl)s1 | – |
| > 30 | CCCCC[C@H](c1ccccc1)[C@@H](CO)NS(=O)(=O)c1ccc(Cl)s1 | – |
| 0.264 | CCCCC[C@H](C)[C@@H](CO)NS(=O)(=O)c1ccc(Cl)s1 | – |
| > 30 | CCCCCC[C@@H](CCCCC)[C@@H](CO)NS(=O)(=O)c1ccc(Cl)s1 | – |
| > 30 | CC(C)C[C@@H](CO)NS(=O)(=O)c1ccc(Cl)s1 | – |
| 0.16 | CC[C@H](C)[C@@H](CO)NS(=O)(=O)c1ccc(Br)s1 | – |
| 4.18 | CCCCC(CCCC)[C@@H](CO)NS(=O)(=O)c1ccc(Cl)s1 | – |
| 5.5 | CC[C@H](C)[C@@H](CO)NS(=O)(=O)c1ccc(Cl)cc1 | – |
| 0.82 | CC(C)[C@@H](CO)NS(=O)(=O)c1ccc(Cl)s1 | – |
| 0.17 | CC[C@H](C)[C@@H](CO)NS(=O)(=O)c1ccc(Cl)s1 | – |
| 0.14 | CC[C@@H](C)[C@@H](CO)NS(=O)(=O)c1ccc(Cl)s1 | – |
| 7.5 | CC(C)(C)[C@@H](CO)NS(=O)(=O)c1ccc(Cl)s1 | – |
| 0.826 | CCCCCC[C@@H](CCC)[C@@H](CO)NS(=O)(=O)c1ccc(Cl)s1 | – |
| 20.7 | CCCCC[C@H](CC(C)C)[C@@H](CO)NS(=O)(=O)c1ccc(Cl)s1 | – |
| 0.58 | O=S(=O)(N[C@H](CO)C1CCCC1)c1ccc(Cl)s1 | – |
| 0.028 | CCC(CC)[C@@H](CO)NS(=O)(=O)c1ccc(Cl)s1 [GSI-136] | Activity [2]: 55%; solubility [3]: 0.037 µg/mL (≈ 0.119 µM); Activity [4]: 25%; EC50 [5]: 0.266 µM; Activity [6]: Not Active; Activity [7]: Not Active; Activity [8]: 15%; Activity [9]: Not Active; Activity [10]: 9.5 |
